Experimental data taken from ChEMBL document CHEMBL5579818, “Identification of 3-(9H-carbazol-9-yl)-2-(1,3-dioxoisoindolin-2-yl)propanoic acids as promising DNMT1 inhibitors” (Eur J Med Chem, 2024).
Calls of active or inactive are those of the source. No cut-off for these calls is given here.

Tests used:
[1] = molecular target: T1, DNA (cytosine-5)-methyltransferase 1 (Homo sapiens, UniProt P26358); assay: Binding affinity to human DNMT1 in presence of 10 uM SAM by SPR analysis
[2] = molecular target: T1, DNA (cytosine-5)-methyltransferase 1; assay: Binding affinity to human DNMT1 expressed in Escherichia coli assessed as equilibrium dissociation constant by SPR analysis
[3] = molecular target: T1, DNA (cytosine-5)-methyltransferase 1; assay: Inhibition of DNMT1 (unknown origin) at 250 uM using semi-methylated DNA substrate preincubated for 15 mins followed by substrate and [3H-SAM] addition and measured after 60 mins by microbeta scintillation counting assay relative to control; settings: time 75.0 min
[4] = system: SiHa; assay: Antiproliferative activity against human SiHa cells at 100 uM incubated for 48 hrs by MTT assay; assay type: functional
[5] = molecular target: T1, DNA (cytosine-5)-methyltransferase 1; assay: Inhibition of human DNMT1 at 500 uM relative to control
[6] = system: K562; assay: Antiproliferative activity against human K562 cells at 100 uM incubated for 48 hrs by MTT assay; assay type: functional
[7] = molecular target: T1, DNA (cytosine-5)-methyltransferase 1; assay: Binding affinity to human DNMT1 expressed in Escherichia coli assessed as response unit at 10 uM by SPR analysis
[8] = system: HeLa; assay: Antiproliferative activity against human HeLa cells at 100 uM incubated for 48 hrs by MTT assay; assay type: functional
[9] = system: A2780; assay: Antiproliferative activity against human A2780 cells at 100 uM incubated for 48 hrs by MTT assay; assay type: functional
[10] = system: K562; assay: Induction of apoptosis in human K562 cells assessed as early apoptotic cells at 60 uM incubated for 48 hrs by Annexin-V/PI staining based flow cytometry assay (reference value: 3.18%); assay type: functional
[11] = system: K562; assay: Induction of apoptosis in human K562 cells assessed as viable cells at 40 uM incubated for 48 hrs by Annexin-V/PI staining based flow cytometry assay (reference value: 92.12%); assay type: functional; settings: read-out: Activity
[12] = molecular target: T1, DNA (cytosine-5)-methyltransferase 1; assay: Inhibition of DNMT1 (unknown origin) using semi-methylated DNA substrate preincubated for 15 mins followed by substrate and [3H-SAM] addition and measured after 60 mins by microbeta scintillation counting assay
[13] = system: K562; assay: Induction of apoptosis in human K562 cells assessed as early apoptotic cells at 20 uM incubated for 48 hrs by Annexin-V/PI staining based flow cytometry assay (reference value: 3.18%); assay type: functional
[14] = system: K562; assay: Induction of cell cycle arrest in human K562 cells assessed as S phase cells at 40 uM incubated for 48 hrs by PI staining based flow cytometry assay (reference value: 24.10 to 26.83%); assay type: functional
[15] = system: K562; assay: Antiproliferative activity against human K562 cells incubated for 48 hrs by MTT assay; assay type: functional, cell-based; settings: K562, 48 h
[16] = system: K562; assay: Induction of apoptosis in human K562 cells assessed as viable cells at 60 uM incubated for 48 hrs by Annexin-V/PI staining based flow cytometry assay (reference value: 92.12%); assay type: functional; settings: read-out: Activity
[17] = system: SiHa; assay: Antiproliferative activity against human SiHa cells incubated for 48 hrs by MTT assay; assay type: functional, cell-based
[18] = system: K562; assay: Upregulation of TRAIL-R2/Dr5 expression in human K562 cells; assay type: functional, cell-based
[19] = system: K562; assay: Induction of apoptosis in human K562 cells assessed as necrotic cells at 20 uM incubated for 48 hrs by Annexin-V/PI staining based flow cytometry assay (reference value: 0.34%); assay type: functional
[20] = system: A2780; assay: Antiproliferative activity against human A2780 cells incubated for 48 hrs by MTT assay; assay type: functional, cell-based; settings: A2780, 48 h
[21] = system: K562; assay: Induction of apoptosis in human K562 cells assessed as late apoptotic cells at 20 uM incubated for 48 hrs by Annexin-V/PI staining based flow cytometry assay (reference value: 3.73%); assay type: functional
[22] = system: K562; assay: Induction of apoptosis in human K562 cells assessed as late apoptotic cells at 60 uM incubated for 48 hrs by Annexin-V/PI staining based flow cytometry assay (reference value: 3.73%); assay type: functional
[23] = system: K562; assay: Induction of cell cycle arrest in human K562 cells assessed as G0-G1 phase cells at 20 uM incubated for 48 hrs by PI staining based flow cytometry assay (reference value: 33.58 to 35.82%); assay type: functional
[24] = system: K562; assay: Induction of apoptosis in human K562 cells assessed as late apoptotic cells at 40 uM incubated for 48 hrs by Annexin-V/PI staining based flow cytometry assay (reference value: 3.73%); assay type: functional
[25] = system: K562; assay: Induction of apoptosis in human K562 cells assessed as early apoptotic cells at 40 uM incubated for 48 hrs by Annexin-V/PI staining based flow cytometry assay (reference value: 3.18%); assay type: functional
[26] = system: K562; assay: Upregulation of CDKN1A/P21 expression in human K562 cells; assay type: functional, cell-based
[27] = system: K562; assay: Induction of cell cycle arrest in human K562 cells assessed as G0-G1 phase cells at 60 uM incubated for 48 hrs by PI staining based flow cytometry assay (reference value: 33.58 to 35.82%); assay type: functional
[28] = system: K562; assay: Induction of apoptosis in human K562 cells assessed as necrotic cells at 60 uM incubated for 48 hrs by Annexin-V/PI staining based flow cytometry assay (reference value: 0.34%); assay type: functional
[29] = system: K562; assay: Induction of apoptosis in human K562 cells assessed as viable cells at 20 uM incubated for 48 hrs by Annexin-V/PI staining based flow cytometry assay (reference value: 92.12%); assay type: functional; settings: read-out: Activity
[30] = system: HeLa; assay: Antiproliferative activity against human HeLa cells incubated for 48 hrs by MTT assay; assay type: functional, cell-based
[31] = system: K562; assay: Induction of cell cycle arrest in human K562 cells assessed as G2/M phase cells at 20 uM incubated for 48 hrs by PI staining based flow cytometry assay (reference value: 37.35 to 45.32%); assay type: functional
[32] = system: K562; assay: Induction of cell cycle arrest in human K562 cells assessed as S phase cells at 20 uM incubated for 48 hrs by PI staining based flow cytometry assay (reference value: 24.10 to 26.83%); assay type: functional
[33] = system: K562; assay: Induction of cell cycle arrest in human K562 cells assessed as S phase cells at 60 uM incubated for 48 hrs by PI staining based flow cytometry assay (reference value: 24.10 to 26.83%); assay type: functional
[34] = system: K562; assay: Induction of cell cycle arrest in human K562 cells assessed as G2/M phase cells at 60 uM incubated for 48 hrs by PI staining based flow cytometry assay (reference value: 37.35 to 45.32%); assay type: functional
[35] = system: K562; assay: Upregulation of TNFR-1 expression in human K562 cells; assay type: functional, cell-based
[36] = system: K562; assay: Induction of cell cycle arrest in human K562 cells assessed as G2/M phase cells at 40 uM incubated for 48 hrs by PI staining based flow cytometry assay (reference value: 37.35 to 45.32%); assay type: functional
[37] = system: K562; assay: Induction of apoptosis in human K562 cells assessed as necrotic cells at 40 uM incubated for 48 hrs by Annexin-V/PI staining based flow cytometry assay (reference value: 0.34%); assay type: functional
[38] = system: K562; assay: Induction of cell cycle arrest in human K562 cells assessed as G0-G1 phase cells at 40 uM incubated for 48 hrs by PI staining based flow cytometry assay (reference value: 33.58 to 35.82%); assay type: functional
[39] = system: K562; assay: Induction of apoptosis in human K562 cells assessed as necrotic cells at 10 uM incubated for 48 hrs by Annexin-V/PI staining based flow cytometry assay (reference value: 0.34%); assay type: functional
[40] = system: K562; assay: Induction of apoptosis in human K562 cells assessed as early apoptotic cells at 10 uM incubated for 48 hrs by Annexin-V/PI staining based flow cytometry assay (reference value: 3.18%); assay type: functional
[41] = system: K562; assay: Induction of cell cycle arrest in human K562 cells assessed as G2/M phase cells at 10 uM incubated for 48 hrs by PI staining based flow cytometry assay (reference value: 37.35 to 45.32%); assay type: functional
[42] = system: K562; assay: Induction of cell cycle arrest in human K562 cells assessed as S phase cells at 10 uM incubated for 48 hrs by PI staining based flow cytometry assay (reference value: 24.10 to 26.83%); assay type: functional
[43] = system: K562; assay: Induction of cell cycle arrest in human K562 cells assessed as G0-G1 phase cells at 10 uM incubated for 48 hrs by PI staining based flow cytometry assay (reference value: 33.58 to 35.82%); assay type: functional
[44] = system: K562; assay: Induction of apoptosis in human K562 cells assessed as viable cells at 10 uM incubated for 48 hrs by Annexin-V/PI staining based flow cytometry assay (reference value: 92.12%); assay type: functional; settings: read-out: Activity
[45] = system: K562; assay: Induction of apoptosis in human K562 cells assessed as late apoptotic cells at 10 uM incubated for 48 hrs by Annexin-V/PI staining based flow cytometry assay (reference value: 3.73%); assay type: functional
[46] = molecular target: T1, DNA (cytosine-5)-methyltransferase 1; assay: Binding affinity to human DNMT1 expressed in Escherichia coli by SPR analysis
[47] = molecular target: T1, DNA (cytosine-5)-methyltransferase 1; assay: Inhibition of DNMT1 (unknown origin) at 250 uM relative to control
[48] = Inhibition of recombinant human DNA methyltransferase using DNA as substrate incubated for 2 hrs by agarose gel assay
[49] = molecular target: T1, DNA (cytosine-5)-methyltransferase 1; assay: Inhibition of DNMT1 (unknown origin) at 500 uM relative to control

T1 sequence (P26358 whole entry): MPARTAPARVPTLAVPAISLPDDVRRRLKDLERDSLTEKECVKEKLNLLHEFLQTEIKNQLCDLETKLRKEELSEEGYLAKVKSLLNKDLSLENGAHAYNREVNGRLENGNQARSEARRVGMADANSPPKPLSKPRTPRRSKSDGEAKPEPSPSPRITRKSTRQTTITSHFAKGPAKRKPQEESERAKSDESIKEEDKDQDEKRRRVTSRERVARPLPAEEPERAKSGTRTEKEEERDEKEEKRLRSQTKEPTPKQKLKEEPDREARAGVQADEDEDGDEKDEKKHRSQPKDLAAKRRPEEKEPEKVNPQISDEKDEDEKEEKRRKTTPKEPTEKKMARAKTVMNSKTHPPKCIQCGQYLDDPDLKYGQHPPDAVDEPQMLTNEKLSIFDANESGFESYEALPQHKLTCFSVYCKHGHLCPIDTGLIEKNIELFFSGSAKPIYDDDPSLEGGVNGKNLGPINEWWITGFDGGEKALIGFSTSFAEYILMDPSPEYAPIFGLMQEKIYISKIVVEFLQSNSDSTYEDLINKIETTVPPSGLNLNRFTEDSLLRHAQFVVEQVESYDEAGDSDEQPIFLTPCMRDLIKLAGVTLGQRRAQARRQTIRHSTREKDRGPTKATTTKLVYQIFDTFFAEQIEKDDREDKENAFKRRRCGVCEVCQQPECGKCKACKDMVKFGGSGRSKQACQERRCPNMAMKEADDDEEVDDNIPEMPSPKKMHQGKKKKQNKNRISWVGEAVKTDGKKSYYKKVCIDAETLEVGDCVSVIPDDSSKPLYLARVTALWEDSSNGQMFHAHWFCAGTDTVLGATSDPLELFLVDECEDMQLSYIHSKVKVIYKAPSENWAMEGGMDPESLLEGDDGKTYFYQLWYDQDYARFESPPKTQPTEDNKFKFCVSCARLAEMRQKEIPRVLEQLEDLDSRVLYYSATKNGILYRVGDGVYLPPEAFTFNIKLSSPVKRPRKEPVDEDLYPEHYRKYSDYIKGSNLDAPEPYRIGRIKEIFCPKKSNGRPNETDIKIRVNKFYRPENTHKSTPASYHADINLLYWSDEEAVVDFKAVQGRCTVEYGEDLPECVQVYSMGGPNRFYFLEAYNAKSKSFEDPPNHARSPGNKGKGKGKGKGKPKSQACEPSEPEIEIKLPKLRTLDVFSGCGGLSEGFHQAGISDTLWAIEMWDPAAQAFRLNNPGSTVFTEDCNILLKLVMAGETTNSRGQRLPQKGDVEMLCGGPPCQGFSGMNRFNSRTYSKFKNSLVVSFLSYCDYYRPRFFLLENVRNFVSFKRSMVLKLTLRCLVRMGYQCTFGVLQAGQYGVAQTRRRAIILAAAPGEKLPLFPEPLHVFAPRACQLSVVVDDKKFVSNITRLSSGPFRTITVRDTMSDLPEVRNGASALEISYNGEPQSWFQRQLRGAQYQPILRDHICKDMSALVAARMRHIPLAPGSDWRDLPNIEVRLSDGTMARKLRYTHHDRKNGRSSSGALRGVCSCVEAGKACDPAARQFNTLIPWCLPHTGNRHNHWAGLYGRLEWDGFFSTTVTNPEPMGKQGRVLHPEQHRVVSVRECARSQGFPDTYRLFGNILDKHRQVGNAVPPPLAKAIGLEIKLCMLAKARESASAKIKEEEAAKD

O=C(O)C(Cn1c2ccc(Br)cc2c2cc(Br)ccc21)N1C(=O)c2ccccc2C1=O (racemic)
Kd [1]: 4.09 µM
Kd [2]: 1.16 µM

O=C(O)C(Cn1c2ccccc2c2ccccc21)N1C(=O)c2ccccc2C1=O (racemic)
inhibition [3]: < 50%
Activity [4]: <5%
inhibition [5]: < 10%
Activity [6]: <5%
Activity [7]: 25.1 RU
Activity [8]: <5%
Activity [9]: <5%

O=C(O)[C@H](Cn1c2ccc(Cl)cc2c2cc(Cl)cc(Cl)c21)N1C(=O)c2ccccc2C1=O
Activity [10]: 4.28%
viability at 40 µM [11]: 93.7%
IC50 [12]: 40 µM
Activity [13]: 3.9%
Activity [14]: 21.62%
IC50 [15]: 43.9 µM
viability at 60 µM [16]: 16.7%
IC50 [17]: 58.6 µM
Activity [18]: Active
Activity [19]: 0.04%
IC50 [20]: 78.9 µM
Activity [21]: 3.16%
Activity [22]: 27.24%
Activity [23]: 35.18%
Activity [24]: 4.25%
Activity [25]: 1.75%
Activity [26]: Active
Activity [27]: 61.74%
Activity [28]: 1.74%
viability at 20 µM [29]: 92.9%
IC50 [30]: 96.8 µM
Activity [31]: 33%
Activity [32]: 24.1%
Activity [33]: 17.4%
Activity [34]: 20.78%
Activity [35]: Active
Activity [36]: 27.43%
Activity [37]: 0.29%
Activity [38]: 50.95%
Kd [2]: 0.183 µM

CC(C)(C)c1ccc2c(c1)c1cc(C(C)(C)C)ccc1n2C[C@@H](C(=O)O)N1C(=O)c2ccccc2C1=O
viability at 40 µM [11]: 3.07%
IC50 [12]: 8.15 µM
Activity [13]: 2.78%
Activity [14]: 22.3%
IC50 [15]: 15.8 µM
IC50 [17]: 25.6 µM
Activity [18]: Active
Activity [39]: 0.37%
Activity [40]: 1.39%
Activity [19]: 0.56%
IC50 [20]: 32.9 µM
Activity [21]: 6.5%
Activity [23]: 54.77%
Activity [24]: 94.09%
Activity [41]: 38.67%
Activity [25]: 1.36%
Activity [26]: Active
Activity [42]: 26.12%
Activity [43]: 34.61%
viability at 20 µM [29]: 90.2%
viability at 10 µM [44]: 86.2%
IC50 [30]: 66.9 µM
Activity [31]: 23.67%
Activity [32]: 21.5%
Activity [35]: Active
Activity [36]: 16.56%
Activity [37]: 1.47%
Activity [45]: 2.07%
Activity [38]: 61.14%
Kd [2]: 0.679 µM

O=C(O)[C@H](Cc1c[nH]c2ccccc12)N1C(=O)c2ccccc2C1=O
IC50 [15]: > 200 µM
IC50 [17]: > 200 µM
Kd [46]: 94.6 µM
IC50 [20]: > 200 µM
inhibition [47]: < 5%
IC50 [30]: > 200 µM
IC50 [48]: 0.115 µM
Activity [7]: 2.2 RU
inhibition [49]: < 5%
Kd [2]: 94.6 µM
